Assay results from US20200291018A1, “TAM KINASE INHIBITORS” (SYROS PHARMACEUTICALS, INC., priority 2017, published 2020).

Assays:
Type in all cases: biochemical
[1] = molecular target: T1, AXL (Homo sapiens, UniProt P30530); assay: TR-FRET kinase activity assay, AXL; settings: ATP at Km, 60 minutes
T1 sequence (P30530 26-894): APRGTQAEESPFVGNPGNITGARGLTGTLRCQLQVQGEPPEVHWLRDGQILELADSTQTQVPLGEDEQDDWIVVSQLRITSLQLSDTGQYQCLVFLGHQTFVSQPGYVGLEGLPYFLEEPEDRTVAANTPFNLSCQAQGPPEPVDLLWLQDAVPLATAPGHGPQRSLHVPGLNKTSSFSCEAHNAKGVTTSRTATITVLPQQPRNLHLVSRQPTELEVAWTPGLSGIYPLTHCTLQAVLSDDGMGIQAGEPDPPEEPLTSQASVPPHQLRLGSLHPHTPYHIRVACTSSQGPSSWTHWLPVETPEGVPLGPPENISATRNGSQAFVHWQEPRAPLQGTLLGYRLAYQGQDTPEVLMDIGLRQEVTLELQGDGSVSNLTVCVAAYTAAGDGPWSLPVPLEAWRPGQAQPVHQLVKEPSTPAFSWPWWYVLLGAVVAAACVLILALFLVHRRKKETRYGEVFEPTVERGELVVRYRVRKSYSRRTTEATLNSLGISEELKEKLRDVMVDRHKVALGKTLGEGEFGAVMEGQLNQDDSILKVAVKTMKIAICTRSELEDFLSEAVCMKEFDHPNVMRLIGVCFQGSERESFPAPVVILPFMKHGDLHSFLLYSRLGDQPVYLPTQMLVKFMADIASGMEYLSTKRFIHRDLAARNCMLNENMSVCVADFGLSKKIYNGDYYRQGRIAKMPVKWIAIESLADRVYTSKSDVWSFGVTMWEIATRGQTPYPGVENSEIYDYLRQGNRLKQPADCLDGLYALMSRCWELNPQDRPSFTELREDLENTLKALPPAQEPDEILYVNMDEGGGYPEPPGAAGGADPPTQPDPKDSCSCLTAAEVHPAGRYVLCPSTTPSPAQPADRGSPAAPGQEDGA
Description: (§1) IC50 values for compound inhibition of AXL, FLT3, MERTK and TYRO3 activity were determined using a TR-FRET activity assay. A peptide substrate with a fluorescent label is phosphorylated on a tyrosine by each enzyme, where the now phosphorylated product is bound by a Europium-labeled antibody specific to that phosphorylation site. The proximity between the antibody and the substrate gives a signal known as TR-FRET. As the enzyme is inhibited by compound, less phosphorylated peptide product is made, causing a decrease in overall signal.
(§2) Activity assays were performed in a 384-well, small volume, black microplates in an active enzyme volume of 10 uL and final developed volume of 20 uL. Final assay conditions are 50 mM HEPES pH 7.5, 10 mM MgCl2, 1 mM EGTA, 0.01% Brij 35 and 1 mM DTT, all at RT. Enzyme, substrate-labeled peptide and compound are mixed, and then the reaction is initiated with the addition of ATP at Km concentration for each enzyme. The reaction is allowed to run 60 minutes and then quenched with a 12.5 mM EDTA (ethylenediamine tetraacetic acid) solution. The plate is then developed with the addition of Europium-labeled antibody for a final volume of 20 uL and is then incubated for 30 minutes in darkness. Plates are read in a PHERASTAR® plate reader. Data are analyzed in GraphPad PRISM.

[2] = molecular target: T2, FLT3 (Homo sapiens, UniProt P36888); assay: TR-FRET kinase activity assay, FLT3; settings: ATP at Km, 60 minutes
T2 sequence (P36888 27-993): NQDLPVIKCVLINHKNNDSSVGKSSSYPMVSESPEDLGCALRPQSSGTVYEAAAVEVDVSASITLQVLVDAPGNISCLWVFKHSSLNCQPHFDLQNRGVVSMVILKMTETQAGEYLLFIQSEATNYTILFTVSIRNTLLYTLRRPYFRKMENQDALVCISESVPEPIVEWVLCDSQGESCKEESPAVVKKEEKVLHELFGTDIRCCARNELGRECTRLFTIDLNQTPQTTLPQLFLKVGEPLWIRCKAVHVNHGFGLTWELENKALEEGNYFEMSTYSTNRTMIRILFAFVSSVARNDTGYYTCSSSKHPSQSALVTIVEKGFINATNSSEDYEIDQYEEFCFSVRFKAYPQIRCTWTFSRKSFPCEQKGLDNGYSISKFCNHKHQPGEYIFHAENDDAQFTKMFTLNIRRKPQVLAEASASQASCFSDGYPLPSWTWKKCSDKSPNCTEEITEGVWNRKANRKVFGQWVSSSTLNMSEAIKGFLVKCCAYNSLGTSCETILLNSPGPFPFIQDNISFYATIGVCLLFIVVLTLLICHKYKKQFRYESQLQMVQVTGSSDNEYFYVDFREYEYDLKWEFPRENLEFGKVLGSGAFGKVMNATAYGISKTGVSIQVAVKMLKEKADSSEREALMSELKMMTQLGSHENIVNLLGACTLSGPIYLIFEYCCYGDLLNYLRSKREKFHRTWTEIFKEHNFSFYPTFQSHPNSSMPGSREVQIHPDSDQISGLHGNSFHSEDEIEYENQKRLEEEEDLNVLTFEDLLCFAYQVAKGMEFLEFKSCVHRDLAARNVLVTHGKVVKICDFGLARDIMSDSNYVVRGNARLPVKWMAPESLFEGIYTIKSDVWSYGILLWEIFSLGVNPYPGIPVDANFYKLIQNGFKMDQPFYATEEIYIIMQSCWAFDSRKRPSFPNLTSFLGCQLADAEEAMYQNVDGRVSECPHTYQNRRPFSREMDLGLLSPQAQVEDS
Description: as §1, §2

[3] = molecular target: T3, MERTK (Homo sapiens, UniProt Q12866); assay: TR-FRET kinase activity assay, MERTK; settings: for IC50: TR-FRET activity assay, ATP at Km, 60 minutes, read-out: Mer IC50; for Mer/Flt3 ratio (FLT3 IC50/Mer IC50): ratio calculated as FLT3 IC50/Mer IC50
T3 sequence (Q12866 21-999): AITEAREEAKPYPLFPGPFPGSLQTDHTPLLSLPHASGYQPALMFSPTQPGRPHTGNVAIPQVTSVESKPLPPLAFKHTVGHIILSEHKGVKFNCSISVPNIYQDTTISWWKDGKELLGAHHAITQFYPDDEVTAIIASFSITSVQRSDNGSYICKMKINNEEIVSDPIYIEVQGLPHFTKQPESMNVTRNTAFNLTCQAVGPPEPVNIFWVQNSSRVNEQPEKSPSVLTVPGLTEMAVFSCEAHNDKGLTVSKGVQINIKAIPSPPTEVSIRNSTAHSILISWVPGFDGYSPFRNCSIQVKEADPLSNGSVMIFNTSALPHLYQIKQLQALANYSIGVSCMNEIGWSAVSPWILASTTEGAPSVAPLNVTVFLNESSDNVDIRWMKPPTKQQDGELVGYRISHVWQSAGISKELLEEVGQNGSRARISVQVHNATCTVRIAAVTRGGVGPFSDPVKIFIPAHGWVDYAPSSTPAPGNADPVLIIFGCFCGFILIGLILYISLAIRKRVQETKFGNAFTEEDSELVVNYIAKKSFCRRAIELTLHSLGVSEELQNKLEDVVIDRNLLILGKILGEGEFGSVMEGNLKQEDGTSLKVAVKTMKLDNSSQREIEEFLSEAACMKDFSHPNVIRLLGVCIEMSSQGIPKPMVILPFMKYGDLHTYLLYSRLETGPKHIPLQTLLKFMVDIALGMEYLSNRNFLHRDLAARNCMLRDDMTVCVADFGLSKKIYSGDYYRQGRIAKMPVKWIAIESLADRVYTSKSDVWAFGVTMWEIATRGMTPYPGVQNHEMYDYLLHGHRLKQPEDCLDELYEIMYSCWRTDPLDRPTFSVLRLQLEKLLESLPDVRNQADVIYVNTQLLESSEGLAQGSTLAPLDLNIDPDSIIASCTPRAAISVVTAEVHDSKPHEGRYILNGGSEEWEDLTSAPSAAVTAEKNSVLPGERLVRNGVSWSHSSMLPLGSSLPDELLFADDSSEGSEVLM
Description: as §1, §2

Row | IC50 [1] [µM] | IC50 [2] [µM] | IC50 [3] [µM] | Mer/Flt3 ratio (FLT3 IC50/Mer IC50) [3] | Compound
1 | 0.1 to 1 | 1 to 10 | 0.1 to 1 | ++ (a ratio of between 10 and 100) | COCC(C)Nc1ncc2c(=O)n(C3CCN(C)CC3)cc([C@H]3CC[C@H](O)CC3)c2n1 (some centres unmarked) [Compound 118]
2 | 0.1 to 1 | 1 to 10 | ≤ 0.1 | +++ (a ratio of >100) | CCCCC[C@H](C)Nc1ncc2c(OC3CCNCC3)ncc([C@H]3CC[C@H](O)CC3)c2n1 [Compound 121]
3 | 0.1 to 1 | ≤ 0.1 | 1 to 10 | NS (a ratio of ≤2.0) | CCCCNc1ncc2c(N(C)C)ncc([C@H]3CC[C@H](O)CC3)c2n1 [Compound 123]
4 | 0.1 to 1 | 1 to 10 | ≤ 0.1 | ++ (a ratio of between 10 and 100) | CC[C@H](C)Nc1ncc2c(OCC34CCC(N)(CC3)CC4)ncc([C@H]3CC[C@H](O)CC3)c2n1 [Compound 252]

The remaining lines, values behind:

Row | Compound | IC50 [1] [µM] | IC50 [2] [µM] | IC50 [3] [µM] | Mer/Flt3 ratio (FLT3 IC50/Mer IC50) [3]
5 | CCCCNc1ncc2c(=O)n(Cc3ccc(F)cc3)cc([C@H]3CC[C@H](O)CC3)c2n1 [Compound 105] | 0.1 to 1 | 0.1 to 1 | ≤ 0.1 | + (a ratio of >2.0 and <10)
6 | CCCCNc1ncc2c(=O)n(C3CCOCC3)cc([C@H]3CC[C@H](O)CC3)c2n1 [Compound 106, 2-(butylamino)-8-(4-hydroxycyclohexyl)-6-tetrahydropyran-4-yl-pyrido[4,3-d]pyrimidin-5-one] | 0.1 to 1 | 0.1 to 1 | ≤ 0.1 | + (a ratio of >2.0 and <10)
7 | COCC(COC)Nc1ncc2c(=O)n(C3CCNCC3)cc([C@H]3CC[C@H](O)CC3)c2n1 [Compound 110] | 1 to 10 | 1 to 10 | 1 to 10 | NS (a ratio of ≤2.0)
8 | COCC(C)Nc1ncc2c(=O)n(C3CCNCC3)cc(C3CCC(O)CC3)c2n1 (centres unmarked) [Compound 111, 8-((1r,4r)-4-hydroxycyclohexyl)-2-((1-methoxypropan-2-yl)amino)-6-(piperidin-4-yl)pyrido[4,3-d]pyrimidin-5(6H)-one] | 0.1 to 1 | 1 to 10 | ≤ 0.1 | +++ (a ratio of >100)
9 | CCCCC[C@H](C)Nc1ncc2c(OC3CCOCC3)ncc([C@H]3CC[C@H](O)CC3)c2n1 [Compound 113] | 0.1 to 1 | 1 to 10 | ≤ 0.1 | +++ (a ratio of >100)
10 | CCCCNc1ncc2c(NC3CCN(C)CC3)ncc([C@H]3CC[C@H](O)CC3)c2n1 [Compound 114] | 0.1 to 1 | ≤ 0.1 | ≤ 0.1 | +++ (a ratio of >100)
11 | CCCCNc1ncc2c(Oc3ccc(F)cc3)ncc([C@H]3CC[C@H](O)CC3)c2n1 [Compound 115] | 1 to 10 | ≤ 0.1 | ≤ 0.1 | + (a ratio of >2.0 and <10)
